In the supplement of paper PMC11061612:

Key:
Assay in all cases: Bliss excess, mean over the matrix (fraction); higher = more synergy
[1] = tested on: AMO-1 (Plasma Cell Myeloma)
Summary of the method: (§1)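 Cell lines grown in DMEM/F12 or RPMI with 10% FBS were plated in 1536-well plates and held 24 hours at 37°C, 5% CO2 before 72 hours of exposure to two-drug dose matrices, with DMSO typically at 0.2%. CellTiter-Glo 2.0 luminescence gave viability, which was converted to inhibition. Vehicle wells were set to 0 and blank wells to 1. Combination Emax is the second-highest inhibition in the matrix, and Bliss excess is the observed combination effect minus the expected EA + EB − EA·EB, where EA and EB are the single-agent effects.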

[2] = tested on: Ca9-22 (Head and Neck Carcinoma)
Summary of the method: as §1

[3] = tested on: Caov-4 (Ovarian Carcinoma)
Summary of the method: as §1

D-263MG (Glioblastoma) = tested on: D-263MG (Glioblastoma)
Summary of the method: as §1

[4] = tested on: EFM-19 (Breast Carcinoma)
Summary of the method: as §1

[5] = tested on: HGC-27 (Gastric Carcinoma)
Summary of the method: as §1

[6] = tested on: HOP-62 (Lung Adenocarcinoma)
Summary of the method: as §1

[7] = tested on: Hs-766T (Pancreatic Carcinoma)
Summary of the method: as §1

NB69 (Neuroblastoma) = tested on: NB69 (Neuroblastoma)
Summary of the method: as §1

[8] = tested on: NCI-H1915 (Non-Small Cell Lung Carcinoma)
Summary of the method: as §1

[9] = tested on: NCI-H358 (Lung Adenocarcinoma)
Summary of the method: as §1

[10] = tested on: NCI-H727 (Other Solid Carcinomas)
Summary of the method: as §1

[11] = tested on: NEC8 (Other Solid Carcinomas)
Summary of the method: as §1

[12] = tested on: NUGC-3 (Gastric Carcinoma)
Summary of the method: as §1

[13] = tested on: OSC-20 (Oral Cavity Carcinoma)
Summary of the method: as §1

[14] = tested on: RF-48 (B-Cell Non-Hodgkin's Lymphoma)
Summary of the method: as §1

[15] = tested on: SU8686 (Pancreatic Carcinoma)
Summary of the method: as §1

[16] = tested on: SW13 (Other Solid Carcinomas)
Summary of the method: as §1

TGW (Neuroblastoma) = tested on: TGW (Neuroblastoma)
Summary of the method: as §1

YH-13 (Glioblastoma) = tested on: YH-13 (Glioblastoma)
Summary of the method: as §1

SMILES	Bliss excess [1]	Bliss excess [2]	Bliss excess [3]	Bliss excess (D-263MG (Glioblastoma))	Bliss excess [4]	Bliss excess [5]	Bliss excess [6]	Bliss excess [7]	Bliss excess (NB69 (Neuroblastoma))	Bliss excess [8]	Bliss excess [9]	Bliss excess [10]	Bliss excess [11]	Bliss excess [12]	Bliss excess [13]	Bliss excess [14]	Bliss excess [15]	Bliss excess [16]	Bliss excess (TGW (Neuroblastoma))	Bliss excess (YH-13 (Glioblastoma))
NC1(C(=O)N[C@@H](CCO)c2ccc(Cl)cc2)CCN(c2ncnc3[nH]ccc23)CC1 [Capivasertib] + CC(C)n1c(=O)n(C)c2cnc3cc(F)c(-c4ccc(OCCCN5CCCCC5)nc4)cc3c21 [AZD1390] (first compound max 10 µM, 7x7, partner max 0.3 µM)	0.0042	-0.0368	-0.0095	-0.0713	-0.0614	-0.053	-0.0893	-0.082	-0.0787	-0.0621	-0.0088	-0.0922	-0.0089	-0.0372	-0.0528	-0.0052	-0.0484	0.0127	-0.106	-0.0372
NC1(C(=O)N[C@@H](CCO)c2ccc(Cl)cc2)CCN(c2ncnc3[nH]ccc23)CC1 [Capivasertib] + CCN(CCO)CCCOc1ccc2c(Nc3cc(CC(=O)Nc4cccc(F)c4)[nH]n3)ncnc2c1 [AZD2811] (first compound max 10 µM, 7x7, partner max 1 µM)	0.0783	0.0117	0.026	0.0163	-0.0084	-0.0167	0.0196	-0.0559	-0.0339	-0.0294	-0.0521	-0.0058	-0.0094	-0.0178	0.0045	-0.0019	-0.0212	-0.0397	-0.0911	-0.0317
CC1(C)CCC(CN2CCN(c3ccc(C(=O)NS(=O)(=O)c4ccc(NCC5CCOCC5)c([N+](=O)[O-])c4)c(Oc4cnc5[nH]ccc5c4)c3)CC2)=C(c2ccc(Cl)cc2)C1 [Venetoclax] + C=CCn1c(=O)c2cnc(Nc3ccc(N4CCN(C)CC4)cc3)nc2n1-c1cccc(C(C)(C)O)n1 [AZD1775] (first compound max 1 µM, partner max 1 µM)	0.0861	0.0384	0.0534	0.0494	-0.0335	-0.0252	-0.0635	-0.0049	-0.282	-0.009	0.0042	0.0475	-0.0523	-0.0656	-0.0522	0.0016	-0.0317	0.0496	-0.0261	-0.0085
CCc1c2c(nc3ccc(O)cc13)-c1cc3c(c(=O)n1C2)COC(=O)[C@]3(O)CC [SN-38] + CN(C)CCCOc1ccc(-c2ccc3ncc4c(c3c2)n(C2CCOCC2)c(=O)n4C)cn1 [AZD0156] (first compound max 0.3 µM, 7x7, partner max 1 µM)	-0.103	0.0332	0.0268	0.0701	-0.064	0.077	0.0182	-0.0147	0.0106	-0.0563	0.0282	-0.006	-0.0228	0.0085	-0.0083	-0.0098	-0.0327	0.0279	0.0047	-0.0036
COc1nnc2ccc(N3CCC(c4ccc(OCCN5CCN(C)C(=O)[C@H]5C)cc4)CC3)nn12 [AZD5153] + C=CCn1c(=O)c2cnc(Nc3ccc(N4CCN(C)CC4)cc3)nc2n1-c1cccc(C(C)(C)O)n1 [AZD1775] (first compound max 1 µM, partner max 1 µM)	-0.0881	-0.0453	-0.0316	-0.0619	-0.026	-0.0229	-0.0674	-0.0369	-0.0206	-0.0565	-0.113	-0.0299	-0.0352	-0.0249	0.0068	-0.012	-0.0147	-0.0336	-0.0689	-0.0451
CN(C)CCCOc1ccc(-c2ccc3ncc4c(c3c2)n(C2CCOCC2)c(=O)n4C)cn1 [AZD0156] + O=C(c1cc(Cc2n[nH]c(=O)c3ccccc23)ccc1F)N1CCN(C(=O)C2CC2)CC1 [Olaparib] (first compound max 3 µM, partner max 3 µM)	0.0066	0.132	-0.0431	0.0132	0.0014	0.0997	-0.0249	-0.0741	0.0875	0.0032	-0.0175	-0.0333	0.104	0.0093	0.0433	0.0064	-0.0011	0.0694	0.106	0.067
CC1(C)CCC(CN2CCN(c3ccc(C(=O)NS(=O)(=O)c4ccc(NCC5CCOCC5)c([N+](=O)[O-])c4)c(Oc4cnc5[nH]ccc5c4)c3)CC2)=C(c2ccc(Cl)cc2)C1 [Venetoclax] + COc1cc(Nc2ncc3c(n2)-c2ccc(Cl)cc2C(c2c(F)cccc2OC)=NC3)ccc1C(=O)O [Alisertib] (first compound max 1 µM, 7x7, partner max 10 µM)	-0.0586	-0.0147	0.0149	0.0522	-0.0049	0.0133	-0.0381	-0.0765	0.0765	-0.0072	0.0186	-0.0707	-0.0037	0.0325	-0.051	0.194	-0.0438	0.0421	0.0858	0.111
